Reference: US8093395B2 (priority 2007, dated 2012)
Read-outs that look alike come from different tables or passages of the source.

How the values were obtained:
Assay in all cases: biochemical
Format in all cases: biochemical
Conditions in all cases: for activity at 1 µM: pH 5.5, read-out: Sphingomyelinase Activity (%)
[1] = molecular target: T1, Bacillus cereus-SMase (Bacillus cereus, UniProt P11889)
[2] = molecular target: T1, Bacillus cereus-SMase; remark: listed apart in the source
Procedure: Experiment 3: Influence of Compound (1a) and Compound (1b) on the ^14C-Sphingomyelin (^14C-Sphingomyelin) Decomposition Activity of Bacillus cereus-SMase
(§1) (i) Solution of Compound (1a)
(§2) Compound (1a) was dissolved in MeOH and adjusted to 1.7 mM and 17 mM.
(§3) (ii) Solution of Compound (1b)
(§4) Compound (1b) was dissolved in MeOH and adjusted to 1.7 mM and 17 mM.
(iii) Preparation of TX-Buffer
0.5 g of Triton X-100 was dissolved in 100 ml of 0.02 M TB.
[Method] 30 ng/ml Bacillus cereus-SMase was mixed with the solution of Compound (1a) with each concentration or the solution of Compound (1b) with each concentration, and the mixture was adjusted with TX-buffer (pH 5.5) to a total volume of 200 μl and pre-treated for 10 minutes at 37° C., after which 10 μl of ^14C-sphingomyelin was added to the reaction mixture, and the resulting mixture was incubated for 30 minutes at 37° C. 600 μl of a solvent to stop the reaction (stop solution; CHCl3:MeOH=1:2) was added to the reaction mixture and the resulting mixture was stirred for 30 seconds twice, and centrifuged for 20 minutes at 2,000 rpm, after which the upper layer was measured using a liquid scintillation counter.

[3] = molecular target: T1, Bacillus cereus-SMase; remark: listed apart in the source
Procedure: Preparation of Sphingomyelin-Liposome (SM-Liposome)
The sphingomyelin (SM), cholesterol, and CF solution used were as follows:
SM: sphingomyelin from bovin brain, code: 32156-74
Cholesterol: Nakarai code: 08721-75
CF solution: 5(6)-carbosyfluorescein; SIGMA C8166, FW=460.4
About 100 μl of 1 N sodium hydroxide (NaOH) was added to CF (27 mg/3 ml, DW) to prepare a CF solution. At this time, NaOH was added to give a pH of 7 to 8 as measured by a pH test paper.
Liposome Preparation Method
59 μl of a solution obtained by dissolving 2 mg of sphingomyelin (SM) in 160 μl of a mixed solvent of chloroform (CHCl3) and methanol (MeOH) (CHCl3:MeOH=2:1) was mixed with 20 μl of a solution obtained by dissolving 19.3 mg of cholesterol in 1 ml of CHCl3; the mixture was homogeneously spread to the bottom of a glass test tube while the CHCl3 and MeOH were distilled under nitrogen, and dried in a desiccator for 30 minutes. The CF solution was warmed to 55° C., and 80 μl of the CF solution was added with stirring to the SM from which the solvent was distilled (the molar ratio of […]: 1:1), and a procedure of placing the mixture in a water bath at 55° C. and stirring the mixture was repeated three times at 30-second intervals. A suitable amount of TBS was added, the mixture was centrifuged for 20 minutes at 15,000 rpm and 4° C., and the supernatant was removed. A suspension of the resulting product in 300 μl of TBS was used as a liposome.
Experiment 2: Influence of Compound (1a) and Compound (1b) on SM-Liposome Degradation Activity of Bacillus cereus-SMase
as §1, §2, §3, §4
[Method] Bc-SMase (50 ng/ml) was mixed with the solution of Compound (1a) with each concentration or the solution of Compound (1b) with each concentration, and the mixture was adjusted with GTBS (pH 5.5) to a total volume of 180 μl and pre-treated for 10 minutes at 37° C., after which 20 μl of the SM-liposome was added to the resulting reaction mixture and incubated for 30 minutes at 37° C. The reaction mixture was measured using a fluorometer (Corona Electric Co., Ltd.; MTP32 Microplate Reader, Ex490, Em530).

T1 sequence (P11889 28-333): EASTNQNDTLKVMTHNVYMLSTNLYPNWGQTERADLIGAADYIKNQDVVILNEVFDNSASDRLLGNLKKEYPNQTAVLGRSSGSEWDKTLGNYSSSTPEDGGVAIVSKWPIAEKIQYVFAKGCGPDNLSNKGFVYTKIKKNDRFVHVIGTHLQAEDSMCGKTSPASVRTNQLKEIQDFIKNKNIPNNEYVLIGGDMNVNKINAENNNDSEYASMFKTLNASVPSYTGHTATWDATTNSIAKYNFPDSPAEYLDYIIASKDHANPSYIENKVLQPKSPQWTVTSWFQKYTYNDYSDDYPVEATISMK

Q: With CCCCCCCCCCCCC/C=C/[C@@H](O)C(COCc1cccc(-c2ccccn2)n1)NC(=O)CCCCC (stereo partly drawn) [Compound (1a)] as the molecule, how does the “sphingomyelinase activity was inhibited by (text summary of Table 1)” value ([1]; 100-μM solution, sheep erythrocyte hemolysis) read?
A: The value was “about 30%”.

Q: What about the activity at 1 µM [1] of the same molecule?
A: The activity at 1 µM was 98.2 ± 1.4%.

Q: And the “sphingomyelinase activity was inhibited by (Table 3)” value ([2]; 100-μM solution, 14C-sphingomyelin decomposition)?
A: The value was “about 25%”.

Q: And the activity at 1 µM [2]?
A: Its activity at 1 µM is 98.6 ± 1.3%.

Q: And the “inhibition of sphingomyelinase activity (text summary of Table 2)” value ([3]; 100-μM solution, SM-liposome degradation)?
A: The value was “substantially completely inhibited”.

Q: What about the activity at 1 µM [3] of the same molecule?
A: Its activity at 1 µM is 99 ± 0.2%.

Q: CCCCCCCCCCCCC/C=C/[C@@H](OCc1cccc(-c2ccccn2)n1)C(CO)NC(=O)CCCCC (stereo partly drawn) [Compound (1b)] was tested. Which “inhibitory effect compared with Compound (1a)” value ([1]; 1 to 100 μM, sheep erythrocyte hemolysis) did it give?
A: Its value is “did not show as potent an inhibitory effect as Compound (1a)”.

Q: And the activity at 1 µM [1]?
A: Its activity at 1 µM is 96.2 ± 2.7%.

Q: What about the “inhibitory effect compared with Compound (1a)” value ([2]; 1 to 100 μM, 14C-sphingomyelin decomposition) of the same molecule?
A: Its value is “did not show as potent an inhibitory effect as Compound (1a)”.

Q: And the activity at 1 µM [2]?
A: Its activity at 1 µM is 98.2 ± 2.3%.

Q: What about the “inhibitory effect compared with Compound (1a)” value ([3]; 1 to 100 μM, SM-liposome degradation) of the same molecule?
A: The value was “did not show as potent an inhibitory effect as Compound (1a)”.

Q: And the activity at 1 µM [3]?
A: The activity at 1 µM was 99.1 ± 0.3%.
